Data published in publication PMC6838683, “Discovery of Human Signaling Systems: Pairing Peptides to G Protein-Coupled Receptors” (Cell, 2019).
Where two headings read alike, the source gives them in different places. Positions of bridges follow the written chain, without caps; N, C: chain ends. No end group written: not given here.

What was measured:
GPR139 = biological target: T1, GPR139 (Homo sapiens, UniProt Q6DWJ6); test: Repeat of proposed literature pairing (mass redistribution and/or internalization); assay type: cell-based
T1 construct: hIL-2Ra signal peptide (N); expressed in transfected cells
T1 sequence (Q6DWJ6 2-353 limits assumed): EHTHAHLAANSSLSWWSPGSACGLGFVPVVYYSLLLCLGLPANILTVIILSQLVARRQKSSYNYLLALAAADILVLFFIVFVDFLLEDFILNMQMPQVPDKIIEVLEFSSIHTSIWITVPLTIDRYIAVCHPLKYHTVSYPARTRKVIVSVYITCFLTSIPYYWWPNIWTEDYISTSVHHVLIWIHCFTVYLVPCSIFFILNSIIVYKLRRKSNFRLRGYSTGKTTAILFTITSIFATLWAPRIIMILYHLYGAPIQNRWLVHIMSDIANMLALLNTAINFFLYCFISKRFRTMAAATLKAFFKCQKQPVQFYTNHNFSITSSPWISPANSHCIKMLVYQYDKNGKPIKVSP
From the text: (§1) DMR assays provide a single integrated readout of ligand-dependent cellular response, utilizing an optical biosensor in specialized microplates to detect wavelength shifts of reflected light as it passes through the biosensor and the lower portion of the cell (∼150-200 nm). As a signal pathway agnostic approach, DMR assays are well-suited to the study of GPCRs ([Fang et al., 2008], [Schröder et al., 2011]). The mass redistribution response (Δ picometer (pm)) likely reflects a number of intracellular events, including cytoskeletal rearrangement, protein trafficking and receptor internalization. Orphan receptor-expressing cells were gently washed twice with assay buffer (HBSS with 1 mM CaCl2, 1 mM MgCl2, 20 mM HEPES, 0.01% pluronic F-68, pH 7.4) containing 0.1% DMSO and cells were equilibrated for 90 min at 22°C in the EPIC Benchtop (BT) System (Corning) to establish a stable DMR signal. After 3-5 min baseline recordings, peptides (10 μM) were added in duplicate wells using an electronic 384-channel Viaflo pipette (Integra Biosciences, Switzerland) and DMR responses were measured for 60 min at 22°C. 100 nM norepinephrine was included as an internal assay control to assess the cellular DMR response via endogenously-expressed adrenoceptors in the TREx 293 cells. Real-time data were processed using the BT to column converter MS-Excel macro (Corning) and analyzed in GraphPad Prism 7.0. DMR recordings in peptide screening experiments were buffer and solvent corrected and the area under the curve (AUC) was quantified. For subsequent validation experiments, peptides were diluted in assay buffer containing 0.1% DMSO and DMR assays were performed as above. […] Data represent mean ± standard error of the mean (SEM) from at least 3 biologically independent experiments.
A TR-FRET real-time internalization assay was used to examine peptide-dependent changes in orphan receptor localization as described previously ([Foster and Bräuner-Osborne, 2018]). Surface-expressed SNAP-tagged receptors were labeled with a cell-impermeable luminescent terbium cryptate (100 nM SNAP Lumi4-Tb; Cisbio, France) for 1 hr at 37°C. Cells were washed to remove excess terbium and incubated with fluorescein-O-acetic acid (100 μM; Sigma Aldrich) for 5 min at 37°C. Peptides were added as for DMR assays, and internalization responses were recorded for 60 min at 37°C using an EnVision 2104 Multimode plate reader (PerkinElmer). 100 nM GLP-1 was used as a positive control for SNAP-GLP1R internalization. Real-time internalization responses were calculated based on TR-FRET (excitation 340 nm; emission 520 nm and 615 nm), and were expressed as the ratio between donor (terbium) and acceptor (fluorescein) emission. For peptide screening analysis (both DMR and internalization assays), we calculated the area under the curve from the real-time traces. […] Validation experiments for receptor internalization were performed as above. Internalization data was processed in MS-Excel and area under the curve was used to generate concentration-response curves using GraphPad Prism 7.0. Data represent mean ± standard error of the mean (SEM) from at least 3 biologically independent experiments.

human GPCRs = biological target: human GPCRs; parameters: method as in Guide to Pharmacology database; settings: max reported value, ref Guide to Pharmacology database, cited from earlier work
From the text: Supplement mmc1.xlsx, sheet "HumanGPCRLigands" | column: pKi_value; pKd_value; pEC50_value; pIC50_value

NPFF1 = biological target: T2, NPFF1 (Homo sapiens, UniProt Q9GZQ6); test: β-arrestin recruitment (Tango), known peptide receptors; assay type: cell-based; settings: mean, n = 3
T2 construct: host or cells: HTLA cells (HEK293-derived)
T2 sequence (Q9GZQ6 whole entry): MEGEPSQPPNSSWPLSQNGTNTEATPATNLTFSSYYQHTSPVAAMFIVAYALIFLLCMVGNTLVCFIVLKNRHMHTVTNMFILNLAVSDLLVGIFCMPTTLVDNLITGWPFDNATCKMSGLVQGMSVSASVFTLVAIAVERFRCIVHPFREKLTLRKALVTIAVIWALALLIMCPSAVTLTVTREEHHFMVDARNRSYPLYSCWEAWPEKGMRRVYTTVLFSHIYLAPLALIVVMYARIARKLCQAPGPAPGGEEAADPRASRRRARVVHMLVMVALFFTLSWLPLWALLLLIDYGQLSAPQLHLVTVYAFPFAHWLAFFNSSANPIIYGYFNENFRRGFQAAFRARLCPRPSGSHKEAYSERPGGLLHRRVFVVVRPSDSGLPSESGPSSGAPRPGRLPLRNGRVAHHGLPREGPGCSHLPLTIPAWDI
From the text: Supplement mmc7.xlsx, sheet "Peptide validation data" | column: Emax; pEC50

GPR15 [1] = biological target: T3, GPR15 (Homo sapiens, UniProt P49685); test: Real-time receptor internalization (TR-FRET), concentration-response; assay type: cell-based; settings: mean, SEM and n (3); for EC50: read-out: Internalization assays pEC50 (converted)
T3 construct: hIL-2Ra signal peptide (N); expressed in transfected cells
T3 sequence (P49685 2-360 limits assumed): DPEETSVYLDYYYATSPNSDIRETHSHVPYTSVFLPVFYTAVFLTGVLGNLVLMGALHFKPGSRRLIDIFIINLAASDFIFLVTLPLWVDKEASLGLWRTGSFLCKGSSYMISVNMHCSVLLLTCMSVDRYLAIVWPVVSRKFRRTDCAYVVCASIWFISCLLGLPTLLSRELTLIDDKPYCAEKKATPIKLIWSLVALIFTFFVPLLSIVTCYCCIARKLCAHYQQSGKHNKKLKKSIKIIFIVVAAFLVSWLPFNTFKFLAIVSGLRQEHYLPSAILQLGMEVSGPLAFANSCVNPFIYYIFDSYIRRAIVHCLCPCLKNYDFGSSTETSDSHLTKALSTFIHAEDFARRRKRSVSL
Method: (§2) 48 hr prior to parallel assaying, SNAP-tagged oGPCR cells were plated (10,000 cells/well) in fibronectin-coated 384-well Epic biosensor microplates (Corning) and poly-D-lysine coated white 384-well plates (for internalization assays). SNAP- GLP-1 receptor was plated alongside orphan receptor cells as an internal assay control for internalization assays. Receptor-expression was induced with 0.1 μg/ml doxycycline.
(§3) A TR-FRET real-time internalization assay was used to examine peptide-dependent changes in orphan receptor localization as described previously ([Foster and Bräuner-Osborne, 2018]). Surface-expressed SNAP-tagged receptors were labeled with a cell-impermeable luminescent terbium cryptate (100 nM SNAP Lumi4-Tb; Cisbio, France) for 1 hr at 37°C. Cells were washed to remove excess terbium and incubated with fluorescein-O-acetic acid (100 μM; Sigma Aldrich) for 5 min at 37°C. Peptides were added as for DMR assays, and internalization responses were recorded for 60 min at 37°C using an EnVision 2104 Multimode plate reader (PerkinElmer). 100 nM GLP-1 was used as a positive control for SNAP-GLP1R internalization. Real-time internalization responses were calculated based on TR-FRET (excitation 340 nm; emission 520 nm and 615 nm), and were expressed as the ratio between donor (terbium) and acceptor (fluorescein) emission. For peptide screening analysis (both DMR and internalization assays), we calculated the area under the curve from the real-time traces. As the magnitude of the responses was variable between orphan receptor targets, particularly for the SNAP-tag based internalization assay where the signal is dependent on receptor surface expression, the AUC values were normalized to their respective plate averages and expressed as fold change. Validation experiments for receptor internalization were performed as above. Internalization data was processed in MS-Excel and area under the curve was used to generate concentration-response curves using GraphPad Prism 7.0. Data represent mean ± standard error of the mean (SEM) from at least 3 biologically independent experiments.

GPR15 [2] = biological target: T3, GPR15; test: Dynamic mass redistribution (DMR), concentration-response; assay type: cell-based; settings: receptor GPR15, mean; for DMR assays Emax (peak or AUC): SEM and n (2-3); for EC50: SEM and n (3), read-out: DMR assays pEC50 (converted)
Method: as §2, §1

GPR15 [3] = biological target: T3, GPR15; test: cAMP inhibition (Gi/o), HTRF with forskolin; assay type: cell-based; settings: receptor GPR15, mean, SEM and n (4); for Emax: read-out: cAMP accumulation assays Emax (% FSK); for EC50: read-out: cAMP accumulation assays pEC50 (converted)
Method: Peptide-dependent second messenger responses were measured using commercially available HTRF-based IP1 and cAMP kits (Cisbio) as described previously ([Nørskov-Lauritsen et al., 2014]). Receptor expression was induced for 48 hr with 0.1 μg/ml doxycycline in 10 cm dishes. For IP1 measurements (to measure Gq/11), 2,500 cells/well were mixed with ligands in triplicate wells in low volume white 384-well plates at 37°C for 30 min. For cAMP assays, 2,500 cells/well were added in triplicate wells in white 384-well plates in the absence or presence of 3 μM forskolin (to measure Gs and Gi/o activation respectively). 100 μM IBMX was included to prevent cAMP degradation during 30 min stimulation on a plate shaker at room temperature. For both assays, HTRF was measured using an EnVision 2104 Multimode plate reader (PerkinElmer).

MAS1 = biological target: T4, MAS1 (Homo sapiens, UniProt P04201); test: β-arrestin recruitment (Tango), indicative pairing; assay type: cell-based; settings: mean, n = 3
T4 construct: host or cells: HTLA cells (HEK293-derived)
T4 sequence (P04201 1-325): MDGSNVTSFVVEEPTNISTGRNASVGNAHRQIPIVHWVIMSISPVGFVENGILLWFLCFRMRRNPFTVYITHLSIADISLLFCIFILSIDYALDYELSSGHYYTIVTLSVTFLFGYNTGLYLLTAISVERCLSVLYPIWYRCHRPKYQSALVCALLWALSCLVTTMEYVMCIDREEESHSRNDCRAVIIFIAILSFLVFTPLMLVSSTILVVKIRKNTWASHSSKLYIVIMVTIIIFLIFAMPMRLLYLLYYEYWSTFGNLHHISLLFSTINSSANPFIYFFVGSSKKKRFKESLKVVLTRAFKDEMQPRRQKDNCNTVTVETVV
Method: The peptide library was additionally screened against 120 GPCR targets in parallel, including all available orphan receptors and 27 known class A peptide receptors using the Tango assay platform ([Kroeze et al., 2015]). Briefly, HTLA cells (a HEK293 cell line stably expressing a tTA-dependent luciferase reporter and a β-arrestin2-TEV fusion gene) were plated 10,000 cells/well in poly-L-lysine–coated clear-bottom white 384-well plates in DMEM supplemented with 10% FBS, 100 U/ml penicillin and 100 μg/ml streptomycin, 2 μg/ml puromycin and 100 μg/ml hygromycin B. 24 hr later, cells were transfected with Tango GPCR constructs using the calcium phosphate method ([Jordan et al., 1996]). The next day, culture medium was changed to DMEM + 1% dFBS and 10 μM peptides were added for overnight stimulation. Bright-Glo solution (Promega) was incubated for 15–20 min at room temperature, and luminescence was counted using a Trilux luminescence counter (Wallac).
For subsequent peptide validation experiments using Tango assays, HTLA cells were transiently transfected in 10 cm dishes with the receptor of interest using polyethylenimine (PEI) ([Longo et al., 2013]). After 24 hr, 25,000 cells/well were plated in clear bottom, white-walled 384-well plates. Assays were performed as described above, with luminescence measured using an EnSpire 2300 Multimode plate reader (PerkinElmer). Luminescence counts were exported into Excel and were analyzed using GraphPad Prism 7.

GPR37 = test: Repeat of proposed literature pairing (mass redistribution and/or internalization); assay type: cell-based, human; settings: repeat of literature pairing; Figure S7A, Tables S5 and S7
From the text: as §1, §3

## ACTH (SYSMEHFRWGKPVGKKRRPVKVYPNGAEDESAEAFPLEF; Corticotropin; UniProt P01189 138-176, looked up) [melanocortin receptor ligand, reference compound]
GPR139; repeat of literature pairing
  Peptide pairing for orphan receptor GPR139 (confirmed/unconfirmed): Confirmed peptide pairings for orphans
GPR139; repeat of literature pairing across multiple assays, Figure S7A, Tables S5 and S7
  receptor-dependent activation by proposed ligand, GPR139: selective receptor-dependent activation
Human GPCRs; receptor mc3r_human (MC3R, P41968)
  pKi_value: 7.1
Human GPCRs; receptor mc4r_human (MC4R, P32245)
  pKi_value: 6.2
Human GPCRs; receptor mc5r_human (MC5R, P33032)
  pKi_value: 5
Human GPCRs; receptor mshr_human (MC1R, Q01726)
  pKi_value: 8.6

## ARANMEAGTMSHFPSLPQRF [Peptide 135]
NPFF1
  Emax, Tango (fold over basal): 22.0 fold over basal
  pEC50, Tango (fold over basal): 6.22

## KRRPAKAWS [Peptide 64.1]
GPR15 [1]
  Internalization assays Emax (AUC): 3.1
GPR15 [2]
  DMR assays Emax (peak or AUC): 107
GPR15 [3]
  cAMP accumulation assays Emax (% FSK): 98.3 % FSK

## KRRPAKAWSGRRTRLCCHRVPSPNSTNLKGHHVRLCKPCKLEPEPRLWVVPGALPQV (disulfide 16-39, 17-36) [64.4 (Phoenix)]
GPR15 [1]
  EC50: 89.1 nM
GPR15 [2]
  EC50: 324 nM
GPR15 [3]
  Emax: 41%
  EC50: 1.26 nM

## LWVVPGALPQV [64 original]
GPR15 [1]
  Internalization assays Emax (AUC): 45.8
GPR15 [2]
  DMR assays Emax (peak or AUC): 197
GPR15 [3]
  cAMP accumulation assays Emax (% FSK): 29.2 % FSK

## NAWGPWSKEQLSPQAREFWSLAAPQRF [Peptide 166]
NPFF1
  Emax, Tango (fold over basal): 26.7 fold over basal
  pEC50, Tango (fold over basal): 4.75
MAS1
  Emax, Tango (fold over basal): 1.2 fold over basal
  pEC50, Tango (fold over basal): 7.14

## RPYLTQGNEIFPD [Peptide 90]
NPFF1
  Emax, Tango (fold over basal): 9.6 fold over basal
  pEC50, Tango (fold over basal): 4.27

## TRLCCHRVPSPNSTNLKGHHVRLCKPCKLEPE (also: bicyclic or more (positions not given here)) [Peptide 64.2]
GPR15 [1]
  Internalization assays Emax (AUC): 4.3
GPR15 [2]
  DMR assays Emax (peak or AUC): 81
GPR15 [3]
  cAMP accumulation assays Emax (% FSK): 92.5 % FSK

## TRLCCHRVPSPNSTNLKGHHVRLCKPCKLEPEPRLWVVPGALPQV (disulfide 4-27, 5-24) [64.3 (Phoenix)]
GPR15 [1]
  EC50: 447 nM
GPR15 [2]
  EC50: 13.2 nM
GPR15 [3]
  Emax: 40.8%
  EC50: 25.7 nM

## head activator
GPR37
  receptor-dependent activation by proposed ligand, GPR37: no activity
